System: amputated P2 bone
Test: Multiple treatments targeting chondrogenesis after P2 amputation
Type: in vivo, adult CD-1 mice
Settings: 98 days after amputation
Procedure: Amputation Surgery and Device Attachment and Removal—All experiments were performed under the approval of Tuft's IACUC. All animals were housed in 12-hour light and dark cycles and fed using the recommended feed. Female CD-1 (Charles River Laboratories, Wilmington, MA) and FVB/NJ mice (Jackson Laboratories, Bar Harbor, ME) from 8 to 10 weeks of age were used in the study. Animals were anesthetized with isoflurane administered at 2 to 5% air composition. For single treatment (FIG. 20A), P2 amputation in hindlimb digit 3 was made using a scalpel under a dissection microscope. Immediately after P2 amputation, the dragonskin insert containing silk hydrogel with or without bioactive molecules was then attached to the amputated digit using Skin Tite™ Bioadhesive (Smooth-On, PA). Prior to hydrogel loading, all materials and tools used in the experiment (e.g. surgical tools and device components) were autoclaved to ensure sterility. Devices were attached for various time periods and the amputation digits were then allowed to heal after device removal. For the approach to target active chondrogenesis (FIG. 20B), hindlimb digit 3 was amputated at P2 level and allowed to heal conservatively for 7 to 9 days. […]

## insulin-like growth factor-1 [IGF-1]
  P2 bone elongation: promote P2 bone elongation
